Test results reported in PubChem BioAssay (NCI).
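Tested at 5 concentrations; 48 h exposure; 96-well plates; endpoints linearly interpolated, else capped at highest concentration. Abbreviation: GI50, concentration required for 50% inhibition of growth. TGI is the concentration that stops growth completely.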

Tests used:
Assay in all cases: NCI tumour cell line growth inhibition, 48 h
UACC-62 melanoma = test system: UACC-62 melanoma
MCF7 breast = test system: MCF7 breast
SR leukemia = test system: SR leukemia
CCRF-CEM leukemia = test system: CCRF-CEM leukemia
RXF 393 renal = test system: RXF 393 renal
HOP-62 NSCLC = test system: HOP-62 NSCLC
SW-620 colon = test system: SW-620 colon
T-47D breast = test system: T-47D breast
CAKI-1 renal = test system: CAKI-1 renal
SF-539 CNS = test system: SF-539 CNS
HCT-116 colon = test system: HCT-116 colon
SNB-19 CNS = test system: SNB-19 CNS
LOX IMVI melanoma = test system: LOX IMVI melanoma
NCI-H522 lung = test system: NCI-H522 lung
SK-OV-3 ovarian = test system: SK-OV-3 ovarian
NCI/ADR-RES ovarian = test system: NCI/ADR-RES ovarian
HT29 colon = test system: HT29 colon
RPMI-8226 leukemia = test system: RPMI-8226 leukemia
MDA-MB-435 = test system: MDA-MB-435
K-562 leukemia = test system: K-562 leukemia
SNB-75 CNS = test system: SNB-75 CNS
HCT-15 colon = test system: HCT-15 colon
NCI-H23 lung = test system: NCI-H23 lung
ACHN renal = test system: ACHN renal
DU-145 prostate = test system: DU-145 prostate
TK-10 renal = test system: TK-10 renal
U251 CNS = test system: U251 CNS
OVCAR-5 ovarian = test system: OVCAR-5 ovarian
SK-MEL-5 melanoma = test system: SK-MEL-5 melanoma
SF-268 CNS = test system: SF-268 CNS
KM12 colon = test system: KM12 colon
M14 melanoma = test system: M14 melanoma
OVCAR-3 ovarian = test system: OVCAR-3 ovarian
EKVX NSCLC = test system: EKVX NSCLC
IGROV1 ovarian = test system: IGROV1 ovarian
HS 578T breast = test system: HS 578T breast
PC-3 prostate = test system: PC-3 prostate
UACC-257 melanoma = test system: UACC-257 melanoma
HL-60(TB) leukemia = test system: HL-60(TB) leukemia
MOLT-4 leukemia = test system: MOLT-4 leukemia
OVCAR-4 ovarian = test system: OVCAR-4 ovarian
SN12C renal = test system: SN12C renal
A549 NSCLC = test system: A549 NSCLC
SK-MEL-28 melanoma = test system: SK-MEL-28 melanoma
SK-MEL-2 melanoma = test system: SK-MEL-2 melanoma
OVCAR-8 ovarian = test system: OVCAR-8 ovarian
MDA-MB-231 breast = test system: MDA-MB-231 breast
UO-31 renal = test system: UO-31 renal
BT-549 breast = test system: BT-549 breast
COLO 205 colon = test system: COLO 205 colon
NCI-H460 lung = test system: NCI-H460 lung
HOP-92 NSCLC = test system: HOP-92 NSCLC
SF-295 CNS = test system: SF-295 CNS
MALME-3M melanoma = test system: MALME-3M melanoma
NCI-H226 lung = test system: NCI-H226 lung
786-0 renal = test system: 786-0 renal
A498 renal = test system: A498 renal
HCC-2998 colon = test system: HCC-2998 colon

## Cc1cccnc1CNC1CC(NCc2ncccc2C)CC(NCc2ncccc2C)C1 (stereo unspecified)
UACC-62 melanoma
  GI50: 1820 nM
  TGI: 3630 nM
MCF7 breast
  GI50: 2390 nM
  TGI: 5210 nM
SR leukemia
  GI50: 406 nM
  TGI: 2090 nM
CCRF-CEM leukemia
  GI50: 2180 nM
  TGI: 4710 nM
RXF 393 renal
  GI50: 1920 nM
  TGI: 3900 nM
HOP-62 NSCLC
  GI50: 1960 nM
  TGI: 4520 nM
SW-620 colon
  GI50: 2040 nM
  TGI: 5800 nM
T-47D breast
  GI50: 1940 nM
  TGI: 3890 nM
CAKI-1 renal
  GI50: 4840 nM
  TGI: 21800 nM
SF-539 CNS
  GI50: 2920 nM
  TGI: 9380 nM
HCT-116 colon
  GI50: 1630 nM
  TGI: 3240 nM
SNB-19 CNS
  GI50: 2040 nM
  TGI: 4030 nM
LOX IMVI melanoma
  GI50: 1920 nM
  TGI: 3960 nM
NCI-H522 lung
  GI50: 2690 nM
  TGI: 12200 nM
SK-OV-3 ovarian
  GI50: 1980 nM
  TGI: 3730 nM
NCI/ADR-RES ovarian
  GI50: 19300 nM
  TGI: > 100000 nM
HT29 colon
  GI50: 3360 nM
  TGI: > 39300 nM
RPMI-8226 leukemia
  GI50: 1910 nM
  TGI: 4300 nM
MDA-MB-435
  GI50: 4160 nM
  TGI: 10700 nM
K-562 leukemia
  GI50: 2380 nM
  TGI: 5560 nM
SNB-75 CNS
  GI50: 2210 nM
  TGI: 4320 nM
HCT-15 colon
  GI50: 4050 nM
  TGI: 13300 nM
NCI-H23 lung
  GI50: 2800 nM
  TGI: 6820 nM
ACHN renal
  GI50: 3220 nM
  TGI: 11200 nM
DU-145 prostate
  GI50: 1880 nM
  TGI: 3580 nM
TK-10 renal
  GI50: 3490 nM
  TGI: 11300 nM
U251 CNS
  GI50: 1810 nM
  TGI: 3360 nM
OVCAR-5 ovarian
  GI50: 1920 nM
  TGI: 5230 nM
SK-MEL-5 melanoma
  GI50: 1920 nM
  TGI: 3830 nM
SF-268 CNS
  GI50: 1990 nM
  TGI: 4050 nM
KM12 colon
  GI50: 4510 nM
  TGI: 20400 nM
M14 melanoma
  GI50: 1960 nM
  TGI: 4350 nM
OVCAR-3 ovarian
  GI50: 3100 nM
  TGI: 8940 nM
EKVX NSCLC
  GI50: 2560 nM
  TGI: 8140 nM
IGROV1 ovarian
  GI50: 3890 nM
  TGI: 40300 nM
HS 578T breast
  GI50: 3390 nM
  TGI: 16200 nM
PC-3 prostate
  GI50: 2300 nM
  TGI: 4520 nM
UACC-257 melanoma
  GI50: 1740 nM
  TGI: 3580 nM
HL-60(TB) leukemia
  GI50: 2470 nM
  TGI: 5980 nM
MOLT-4 leukemia
  GI50: 2720 nM
  TGI: 5380 nM
OVCAR-4 ovarian
  GI50: 2880 nM
  TGI: 11900 nM
SN12C renal
  GI50: 1610 nM
  TGI: 3110 nM
A549 NSCLC
  GI50: 2010 nM
  TGI: 4210 nM
SK-MEL-28 melanoma
  GI50: 3170 nM
  TGI: 12400 nM
SK-MEL-2 melanoma
  GI50: 3900 nM
  TGI: > 100000 nM
OVCAR-8 ovarian
  GI50: 2200 nM
  TGI: 4870 nM
MDA-MB-231 breast
  GI50: 1600 nM
  TGI: 3560 nM
UO-31 renal
  GI50: 4850 nM
  TGI: 22500 nM
BT-549 breast
  GI50: 2950 nM
  TGI: 7820 nM
COLO 205 colon
  GI50: 2030 nM
  TGI: 4250 nM
NCI-H460 lung
  GI50: 2410 nM
  TGI: 6030 nM
HOP-92 NSCLC
  GI50: 1100 nM
  TGI: 2300 nM
SF-295 CNS
  GI50: 3120 nM
  TGI: 8600 nM
MALME-3M melanoma
  GI50: 2840 nM
  TGI: 9460 nM
NCI-H226 lung
  GI50: 1650 nM
  TGI: 3170 nM
786-0 renal
  GI50: 2150 nM
  TGI: 4550 nM
A498 renal
  GI50: 1780 nM
  TGI: 3300 nM

## CN(C)CCOc1nc2ccccc2c2c1-c1ccc(Cl)cc1C2=O
UACC-62 melanoma
  GI50: 1380 nM
  TGI: 2930 nM
MCF7 breast
  GI50: 324 nM
  TGI: 1390 nM
SR leukemia
  GI50: 305 nM
  TGI: 1030 nM
HCC-2998 colon
  GI50: 970 nM
  TGI: 2490 nM
CCRF-CEM leukemia
  GI50: 363 nM
  TGI: 2460 nM
RXF 393 renal
  GI50: 1070 nM
  TGI: 2550 nM
HOP-62 NSCLC
  GI50: 1210 nM
SW-620 colon
  GI50: 340 nM
  TGI: 1530 nM
T-47D breast
  GI50: 1530 nM
  TGI: 4550 nM
CAKI-1 renal
  GI50: 499 nM
  TGI: 5180 nM
SF-539 CNS
  GI50: 1070 nM
  TGI: 2590 nM
HCT-116 colon
  GI50: 422 nM
  TGI: 1520 nM
SNB-19 CNS
  GI50: 460 nM
  TGI: 2140 nM
LOX IMVI melanoma
  GI50: 416 nM
  TGI: 1780 nM
NCI-H522 lung
  GI50: 573 nM
  TGI: 2090 nM
SK-OV-3 ovarian
  GI50: 1760 nM
  TGI: > 37000 nM
NCI/ADR-RES ovarian
  GI50: 696 nM
  TGI: 4400 nM
HT29 colon
  GI50: 453 nM
  TGI: 1630 nM
RPMI-8226 leukemia
  GI50: 617 nM
  TGI: 2350 nM
MDA-MB-435
  GI50: 489 nM
  TGI: 1880 nM
SNB-75 CNS
  GI50: 1220 nM
  TGI: 2620 nM
HCT-15 colon
  GI50: 464 nM
  TGI: 1920 nM
NCI-H23 lung
  GI50: 1140 nM
  TGI: 4040 nM
ACHN renal
  GI50: 419 nM
  TGI: 1720 nM
DU-145 prostate
  GI50: 444 nM
  TGI: 1350 nM
TK-10 renal
  GI50: 1360 nM
  TGI: 3180 nM
U251 CNS
  GI50: 380 nM
  TGI: 1590 nM
OVCAR-5 ovarian
  GI50: 1270 nM
SK-MEL-5 melanoma
  GI50: 1360 nM
  TGI: 2670 nM
SF-268 CNS
  GI50: 577 nM
  TGI: 2320 nM
KM12 colon
  GI50: 441 nM
  TGI: 1570 nM
M14 melanoma
  GI50: 1120 nM
  TGI: 2720 nM
OVCAR-3 ovarian
  GI50: 622 nM
  TGI: 1850 nM
EKVX NSCLC
  GI50: 2060 nM
  TGI: 6850 nM
IGROV1 ovarian
  GI50: 444 nM
  TGI: 1730 nM
HS 578T breast
  GI50: 728 nM
  TGI: 3590 nM
PC-3 prostate
  GI50: 1340 nM
  TGI: 7690 nM
UACC-257 melanoma
  GI50: 1250 nM
  TGI: 2970 nM
HL-60(TB) leukemia
  GI50: 933 nM
  TGI: 3370 nM
MOLT-4 leukemia
  GI50: 302 nM
  TGI: 1510 nM
OVCAR-4 ovarian
  GI50: 927 nM
  TGI: 4040 nM
SN12C renal
  GI50: 389 nM
  TGI: 2360 nM
A549 NSCLC
  GI50: 458 nM
  TGI: 5250 nM
SK-MEL-28 melanoma
  GI50: 1650 nM
  TGI: 3150 nM
SK-MEL-2 melanoma
  GI50: 2340 nM
  TGI: 4680 nM
OVCAR-8 ovarian
  GI50: 386 nM
  TGI: 2220 nM
MDA-MB-231 breast
  GI50: 1100 nM
  TGI: 3000 nM
UO-31 renal
  GI50: 222 nM
  TGI: 1270 nM
BT-549 breast
  GI50: 2010 nM
  TGI: 4590 nM
COLO 205 colon
  GI50: 443 nM
  TGI: 1720 nM
NCI-H460 lung
  GI50: 365 nM
  TGI: 1300 nM
HOP-92 NSCLC
  GI50: 748 nM
  TGI: 12300 nM
SF-295 CNS
  GI50: 1530 nM
  TGI: > 100000 nM
MALME-3M melanoma
  GI50: 1070 nM
  TGI: 2430 nM
NCI-H226 lung
  GI50: 735 nM
  TGI: 8650 nM
786-0 renal
  GI50: 889 nM
  TGI: 3260 nM
A498 renal
  GI50: 1190 nM
  TGI: 2870 nM
